Assay: Thioflavine T stress test of heat treated liraglutide preparations
Type: physicochemical
Procedure: The physical stability of the liraglutide preparations was evaluated by the use of a florescence method; the Thioflavine T-test where the histological thiazole dye Thioflavine T (ThT) was used as an indicator of fibril formation. By the use of Thioflavine T-test it was possible to determine the presence of fibrils in the different formulations. The method was based on the fluorescent characteristics of ThT.
ThT was used in a stress test applying the different formulations in microtiter plates with ThT at 35° C. and shaken with 350 rpm until the formulations were fibrillated. Graphs of the fluorescence intensity (FI) as a function of time (sec) were obtained.

CCCCCCCCCCCCCCCC(=O)N[C@@H](CCC(=O)NCCCC[C@H](NC(=O)[C@H](C)NC(=O)[C@H](C)NC(=O)[C@H](CCC(N)=O)NC(=O)CNC(=O)[C@H](CCC(=O)O)NC(=O)[C@H](CC(C)C)NC(=O)[C@H](Cc1ccc(O)cc1)NC(=O)[C@H](CO)NC(=O)[C@H](CO)NC(=O)[C@@H](NC(=O)[C@H](CC(=O)O)NC(=O)[C@H](CO)NC(=O)[C@@H](NC(=O)[C@H](Cc1ccccc1)NC(=O)[C@@H](NC(=O)CNC(=O)[C@H](CCC(=O)O)NC(=O)[C@H](C)NC(=O)[C@@H](N)Cc1cnc[nH]1)[C@@H](C)O)[C@@H](C)O)C(C)C)C(=O)N[C@@H](CCC(=O)O)C(=O)N[C@@H](Cc1ccccc1)C(=O)N[C@H](C(=O)N[C@@H](C)C(=O)N[C@@H](Cc1c[nH]c2ccccc12)C(=O)N[C@@H](CC(C)C)C(=O)N[C@H](C(=O)N[C@@H](CCCNC(=N)N)C(=O)NCC(=O)N[C@@H](CCCNC(=N)N)C(=O)NCC(=O)O)C(C)C)[C@@H](C)CC)C(=O)O [liraglutide, Arg^34, Lys^26(N^ε-(γ-Glu(N^α-hexadecanoyl)))-GLP-1(7-37)]
physical stability, time of heat treatment (60 and 80° C., 120 minutes in comparison to 1 minute of heat treatment): improve the physical stability significantly | physical stability by increasing the temperature of heat treatment (from 22 to 50-80° C. at pH 9-10): significantly improved | physical stability as temperature of heat treatment was increased (heat treatment 22 to 80° C.): significantly improved | physical stability, time of heat treatment (pH 9-10, all temperatures, 15 to 20 minutes compared to 1 minute of heat treatment): improve the physical stability significantly

Reference: patent publication US8748376B2, “Stable formulations of peptides” (Novo Nordisk A/S, priority 2004, dated 2014)
